Compound `C[C@]1(COC(=O)N2CCN(c3ccc(OC(F)(F)F)cc3)CC2)Cn2cc([N+](=O)[O-])nc2O1` has a melting point of 168 to 169 °C.
With `C[C@]1(COC(=O)N2CCN(Cc3ccc(Cl)cc3)CC2)Cn2cc([N+](=O)[O-])nc2O1` the melting point was 161 to 163 °C.
`C[C@]1(COC(=O)N2CCN(N=Cc3ccc(C(F)(F)F)cc3)CC2)Cn2cc([N+](=O)[O-])nc2O1` gave a melting point of 176 to 178 °C.
`C[C@]1(COC(=O)N2CCC(Nc3ccc(C(F)(F)F)cc3)CC2)Cn2cc([N+](=O)[O-])nc2O1` showed a melting point of 137 to 140 °C.
Compound `C[C@]1(COC(=O)N2CCc3cc(Cl)ccc3C2)Cn2cc([N+](=O)[O-])nc2O1` has a melting point of 180 to 182 °C.
In the case of `CC1(COc2ccc(N3CCN(c4ccc(C(F)(F)F)cc4)CC3)cc2)Cn2cc([N+](=O)[O-])nc2O1` (stereo not shown), the melting point is reported as 230.7 to 233.1 °C.
`CC(C)(C)OC(=O)N1CCC(c2ccc(OCC3(C)Cn4cc([N+](=O)[O-])nc4O3)cc2)CC1` (stereo not shown) gave a melting point of 207.8 to 209.1 °C.
In the case of `CC1(COc2ccc(N3CCN(Cc4ccc(C(F)(F)F)cc4)CC3)cc2)Cn2cc([N+](=O)[O-])nc2O1` (stereo not shown), the melting point is reported as 171.8 to 173.1 °C.
Work on `CC1(COc2ccc(C3CCN(Cc4ccc(OC(F)(F)F)cc4)CC3)cc2)Cn2cc([N+](=O)[O-])nc2O1` (stereo not shown) yielded a melting point of 160.6 to 161.1 °C.
With `C[C@]1(COc2ccc(OC(F)(F)F)cc2)Cn2cc([N+](=O)[O-])nc2O1` the melting point was 176.5 to 178 °C.
`O=C(Oc1ccccc1)N1CCC2(CC1)Cn1cc([N+](=O)[O-])nc1O2` gave a melting point of 242 to 244 °C.
`O=C(Nc1ccc(C(F)(F)F)cc1)N1CCC2(CC1)Cn1cc([N+](=O)[O-])nc1O2` gave a melting point of 215 to 217 °C.
In the case of `Cc1ccc(NC(=O)N2CCC3(CC2)Cn2cc([N+](=O)[O-])nc2O3)cc1`, the melting point is reported as > 300 °C.
In the case of `CC(C)(C)OC(=O)c1ccc(NC(=O)N2CCC3(CC2)Cn2cc([N+](=O)[O-])nc2O3)cc1`, the melting point is reported as > 300 °C.
For `C[C@]1(COc2ccc(N3CCN(c4ccc(OC(F)(F)F)cc4)CC3)cc2)Cn2cc([N+](=O)[O-])nc2O1`, the melting point was 262.5 to 265 °C.
For `C[C@]1(CN2CCC(N3CCN(c4ccc(OC(F)(F)F)cc4)CC3)CC2)Cn2cc([N+](=O)[O-])nc2O1`, the melting point was 193 to 194 °C.
`C[C@]1(CN2CCC(N3CCN(Cc4ccc(Cl)cc4)CC3)CC2)Cn2cc([N+](=O)[O-])nc2O1` gave a melting point of 148 to 149 °C.
Work on `CC(C)(C)OC(=O)N1CCN(C2CCN(C[C@@]3(C)Cn4cc([N+](=O)[O-])nc4O3)CC2)CC1` yielded a melting point of 184 to 185 °C.
Compound `C[C@]1(CN2CCC(N3CCN(C(=O)OCc4ccc(OC(F)(F)F)cc4)CC3)CC2)Cn2cc([N+](=O)[O-])nc2O1` has a melting point of 110 to 111 °C.
Work on `O=[N+]([O-])c1cn2c(n1)OC1(CCN(c3ccc(Cl)cc3)CC1)C2` yielded a melting point of 242 to 245 °C.
For `O=[N+]([O-])c1cn2c(n1)O[C@@H](COc1ccc(N3CCC(Oc4ccc(OC(F)(F)F)cc4)CC3)cc1)C2`, the melting point was 157 to 160 °C.
Work on `CC1(COCc2ccc(Oc3ccc(OC(F)(F)F)cc3)cc2)Cn2cc([N+](=O)[O-])nc2O1` (stereo not shown) yielded a melting point of 107.9 to 109.3 °C.
`C[C@]1(COc2ccc(N3CCN(C(=O)OCc4cc5cc(Cl)ccc5o4)CC3)cc2)Cn2cc([N+](=O)[O-])nc2O1` showed a melting point of 195 to 197 °C.
For `C[C@]1(COc2ccc(C3=CCN(C(=O)OCc4ccc(OC(F)(F)F)cc4)CC3)cc2)Cn2cc([N+](=O)[O-])nc2O1`, the melting point was 174.3 to 174.8 °C.
Compound `CCOC(=O)N1CCN(C(=O)c2ccc(OC[C@@]3(C)Cn4cc([N+](=O)[O-])nc4O3)cc2)CC1` has a melting point of 132 to 135 °C.
In the case of `CN(CCOc1ccc(Cl)cc1)C[C@@]1(C)Cn2cc([N+](=O)[O-])nc2O1`, the melting point is reported as 130.5 to 132 °C.
Work on `CN(Cc1ccc(N(C)C)cc1)C[C@@]1(C)Cn2cc([N+](=O)[O-])nc2O1` yielded a melting point of 168 to 169 °C.
Work on `CN(C[C@@]1(C)Cn2cc([N+](=O)[O-])nc2O1)c1ccc(Cl)cc1` yielded a melting point of 174 to 175 °C.
`CN(CCN1CCN(Cc2ccc(C(F)(F)F)cc2)CC1)C[C@@]1(C)Cn2cc([N+](=O)[O-])nc2O1` showed a melting point of 102 to 104.5 °C.
With `CC1(CNC(=O)OCc2ccc(Cl)cc2)Cn2cc([N+](=O)[O-])nc2O1` (stereo not shown) the melting point was 221 to 221.8 °C.
`CNCC1(C)Cn2cc([N+](=O)[O-])nc2O1.O=C(O)C(F)(F)F` (stereo not shown) showed a melting point of 176.2 to 178.8 °C.
Work on `CN(CC1(C)Cn2cc([N+](=O)[O-])nc2O1)C(=O)OCc1ccc(F)cc1` (stereo not shown) yielded a melting point of 168.9 to 169.9 °C.
With `CN(CC1Cn2cc([N+](=O)[O-])nc2O1)C(=O)OCc1ccc(F)cc1` (stereo not shown) the melting point was 124.5 to 128.1 °C.
`CC1(CN2CCC(Oc3ccc(OC(F)(F)F)cc3)CC2)Cn2cc([N+](=O)[O-])nc2O1` (stereo not shown) showed a melting point of 117 to 119 °C.
For `CC1(CN2CCC(Cc3ccc(Cl)cc3)CC2)Cn2cc([N+](=O)[O-])nc2O1` (stereo not shown), the melting point was 109 to 110.5 °C.
In the case of `C[C@]1(CN2CCC(OCc3ccc(Cl)c(Cl)c3)CC2)Cn2cc([N+](=O)[O-])nc2O1`, the melting point is reported as 132 to 136 °C.
Work on `C[C@]1(CN2CCC(OCCCc3ccc(Cl)cc3)CC2)Cn2cc([N+](=O)[O-])nc2O1` yielded a melting point of 88.8 to 91.9 °C.
For `C[C@]1(CN2CCC(Nc3ccc(OC(F)(F)F)cc3)CC2)Cn2cc([N+](=O)[O-])nc2O1`, the melting point was 107.5 to 109 °C.
In the case of `C[C@]1(CN2CC=C(c3ccccc3)CC2)Cn2cc([N+](=O)[O-])nc2O1`, the melting point is reported as 200.1 to 201 °C.
With `CC1(CN2CCN(c3ccc(C(F)(F)F)cc3)CC2)Cn2cc([N+](=O)[O-])nc2O1` (stereo not shown) the melting point was 159 to 160 °C.
With `CC(C)(C)OC(=O)N1CCN(CC2Cn3cc([N+](=O)[O-])nc3O2)CC1` (stereo not shown) the melting point was 185 to 188 °C (dec.).
Compound `CC(C)(C)OC(=O)N1CCN(CCCC2(C)Cn3cc([N+](=O)[O-])nc3O2)CC1` (stereo not shown) has a melting point of 166 to 167 °C.
`CC1(CCN2CCN(Cc3ccc(C(F)(F)F)cc3)CC2)Cn2cc([N+](=O)[O-])nc2O1` (stereo not shown) gave a melting point of 148 to 149 °C.
Work on `CC1(CCCN2CCN(Cc3ccc(-c4ccccc4)cc3)CC2)Cn2cc([N+](=O)[O-])nc2O1` (stereo not shown) yielded a melting point of 176 to 178 °C.
Work on `CC1(CN2CCN(CCCn3c(=O)oc4ccccc43)CC2)Cn2cc([N+](=O)[O-])nc2O1` (stereo not shown) yielded a melting point of 123 to 126 °C.
With `CC1(CN2CCN(C(=O)OCc3ccccc3)CC2)Cn2cc([N+](=O)[O-])nc2O1.Cl` (stereo not shown) the melting point was 130.5 to 132.1 °C.
In the case of `CC(C)OC(=O)N1CCN(CC2(C)Cn3cc([N+](=O)[O-])nc3O2)CC1` (stereo not shown), the melting point is reported as 158.3 to 159.8 °C.
`CC(C)NC(=O)N1CCN(CC2(C)Cn3cc([N+](=O)[O-])nc3O2)CC1` (stereo not shown) gave a melting point of 175 to 176.3 °C.
In the case of `CC1(CN2CCN(c3nc4ccccc4o3)CC2)Cn2cc([N+](=O)[O-])nc2O1` (stereo not shown), the melting point is reported as 228 to 229.5 °C.
For `O=[N+]([O-])c1cn2c(n1)OC(CN1CCN(c3nc4ccccc4o3)CC1)C2` (stereo not shown), the melting point was 206 to 209 °C (dec.).
`C[C@]1(CO)Cn2cc([N+](=O)[O-])nc2O1` gave a melting point of 162 to 163 °C.
`C[C@]1(CN2CCN(c3cccnc3)CC2)Cn2cc([N+](=O)[O-])nc2O1` showed a melting point of 145 to 147.7 °C.
With `O=[N+]([O-])c1cn2c(n1)O[C@@H](CN1CCN(c3ccc(C(F)(F)F)cc3)CC1)C2` the melting point was 175.8 to 176.6 °C.
`C[C@]1(CN2CCN(C(=O)OCc3ccc(OC(F)(F)F)cc3)CC2)Cn2cc([N+](=O)[O-])nc2O1` gave a melting point of 139.5 to 140.5 °C.
With `O=[N+]([O-])c1cn2c(n1)O[C@@H](CN1CCN(Cc3ccc(C(F)(F)F)cc3)CC1)C2` the melting point was 149 to 150 °C.
For `CC1(CN2CCN(C(=O)c3ccc(Cl)cc3)CC2)Cn2cc([N+](=O)[O-])nc2O1` (stereo not shown), the melting point was 150 to 155.2 °C.
Work on `Cc1ccc(C(=O)N2CCN(CC3(C)Cn4cc([N+](=O)[O-])nc4O3)CC2)cc1` (stereo not shown) yielded a melting point of 121 to 122 °C.
`CC1(CN2CCN(C(=O)c3cccc(C(F)(F)F)c3)CC2)Cn2cc([N+](=O)[O-])nc2O1` (stereo not shown) showed a melting point of 122 to 124 °C.
`C[C@]1(CN2CCN(C(=O)CCCCc3ccc(Cl)cc3)CC2)Cn2cc([N+](=O)[O-])nc2O1` showed a melting point of 108 to 111 °C.
Work on `C[C@]1(CN2CCN(S(=O)(=O)Cc3ccc(Cl)cc3)CC2)Cn2cc([N+](=O)[O-])nc2O1` yielded a melting point of 204 to 206 °C.
Work on `C[C@]1(COc2nc3ccccc3o2)Cn2cc([N+](=O)[O-])nc2O1` yielded a melting point of 232 to 233 °C.
For `COc1ccc(NC(=O)N2CCN(CC3(C)Cn4cc([N+](=O)[O-])nc4O3)CC2)cc1` (stereo not shown), the melting point was 167 to 168 °C.
In the case of `CC1(CN2CCN(C(=O)Nc3cccc(C(F)(F)F)c3)CC2)Cn2cc([N+](=O)[O-])nc2O1` (stereo not shown), the melting point is reported as 183 to 184 °C.
With `Cc1ccc(NC(=O)N2CCN(C[C@@]3(C)Cn4cc([N+](=O)[O-])nc4O3)CC2)cc1` the melting point was 207 to 210 °C (dec.).
With `CN(C(=O)N1CCN(C[C@@]2(C)Cn3cc([N+](=O)[O-])nc3O2)CC1)c1ccc(C(F)(F)F)cc1` the melting point was 100.4 to 102.4 °C.
In the case of `C[C@]1(CN2CCN(N=Cc3cc4cc(C(F)(F)F)ccc4o3)CC2)Cn2cc([N+](=O)[O-])nc2O1`, the melting point is reported as 190.2 to 191.8 °C.
In the case of `CC1(Cn2nc(-c3ccc(-c4ccccc4)cc3)oc2=O)Cn2cc([N+](=O)[O-])nc2O1` (stereo not shown), the melting point is reported as 248 to 249 °C.
For `CC1(Cn2nc(-c3ccc(F)cc3)oc2=O)Cn2cc([N+](=O)[O-])nc2O1` (stereo not shown), the melting point was 188 to 191 °C.
For `CC1(Cn2nc(CCc3ccc(Cl)cc3)oc2=O)Cn2cc([N+](=O)[O-])nc2O1` (stereo not shown), the melting point was 139 to 140 °C.
`CC1(CCn2nc(-c3cnccn3)oc2=O)Cn2cc([N+](=O)[O-])nc2O1` (stereo not shown) showed a melting point of 209 to 212 °C.
For `Cn1c(=O)n(CC2(C)Cn3cc([N+](=O)[O-])nc3O2)c2ccccc21` (stereo not shown), the melting point was 203.2 to 204.4 °C.
Work on `CC(C)n1c(=O)n(CC2(C)Cn3cc([N+](=O)[O-])nc3O2)c2cc(Cl)ccc21` (stereo not shown) yielded a melting point of 240.5 to 244.8 °C.
Compound `CC1(CN2CCN(Cc3ccc(Br)cc3)C2=O)Cn2cc([N+](=O)[O-])nc2O1` (stereo not shown) has a melting point of 205.7 to 208.1 °C.
In the case of `CC1(CN2CCCN(C(=O)OCc3ccccc3)CC2)Cn2cc([N+](=O)[O-])nc2O1.Cl` (stereo not shown), the melting point is reported as 115 to 117 °C.
With `O=C(Nc1ccccc1)N1CCC2(CC1)Cn1cc([N+](=O)[O-])nc1O2` the melting point was 229 to 232 °C (dec.).
With `O=C(NCc1ccccc1)N1CCC2(CC1)Cn1cc([N+](=O)[O-])nc1O2` the melting point was 244 to 247 °C (dec.).
With `CC(C)(C)OC(=O)N1CCN(C(=O)N2CCC3(CC2)Cn2cc([N+](=O)[O-])nc2O3)CC1` the melting point was 260 to 265 °C (dec.).
Work on `CCN(CC)C(=O)OC[C@@]1(C)Cn2cc([N+](=O)[O-])nc2O1` yielded a melting point of 196 to 197 °C.
Compound `C[C@]1(COC(=O)N(c2ccc(Cl)cc2)c2ccc(Cl)cc2)Cn2cc([N+](=O)[O-])nc2O1` has a melting point of 200 to 201 °C.

— US7262212B2, “2,3-dihydro-6-nitroimidazo[2,1-b]oxazoles” (Otsuka Pharmaceutical Co., Ltd., priority 2002, dated 2007)
